The values below come from patent US7557108B2, “(Indol-4-yl) or (indol-5-yl)-piperazinylmethanones” (Hoffmann-La Roche Inc., priority 2007, dated 2009).

SMILES strings stand for the structures.

For the test, the target named is T1, human H3R (Homo sapiens, UniProt Q9Y5N1).
T1 construct: expressed in transfected cells; host or cells: CHO cells
T1 sequence (Q9Y5N1 whole entry): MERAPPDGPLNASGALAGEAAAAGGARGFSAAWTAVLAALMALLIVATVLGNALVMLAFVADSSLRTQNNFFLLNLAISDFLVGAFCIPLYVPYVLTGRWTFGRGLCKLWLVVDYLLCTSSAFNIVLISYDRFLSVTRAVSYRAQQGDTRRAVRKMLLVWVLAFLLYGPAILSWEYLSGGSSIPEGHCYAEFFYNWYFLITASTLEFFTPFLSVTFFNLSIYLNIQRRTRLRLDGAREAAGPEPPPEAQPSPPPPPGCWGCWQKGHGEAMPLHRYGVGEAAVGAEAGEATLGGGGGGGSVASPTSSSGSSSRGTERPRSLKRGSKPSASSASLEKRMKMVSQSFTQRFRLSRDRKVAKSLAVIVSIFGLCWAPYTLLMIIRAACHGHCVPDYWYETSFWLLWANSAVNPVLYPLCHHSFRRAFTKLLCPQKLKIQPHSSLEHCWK
The test can be described thus: Binding assay with 3H-(R)α-methylhistamine (competition binding, membranes of the human H3R-CHO cell line). The note with it: competition with 3H(R)α-methylhistamine (1 nM), Ki calculated from IC50 by Cheng-Prusoff. Here is the method:
Binding Assay With ^3H—(R)α-methylhistamine
Saturation binding experiments were performed using HR3-CHO membranes prepared as described in Takahashi, K, Tokita, S., Kotani, H. (2003) J. Pharmacol. Exp. Therapeutics 307, 213-218.
An appropriate amount of membrane (60 to 80 μg protein/well) was incubated with increasing concentrations of ^3H(R)α-Methylhistamine di-hydrochloride (0.10 to 10 nM). Non specific binding was determined using a 200 fold excess of cold (R)α-Methylhistamine dihydrobromide (500 nM final concentration). The incubation was carried out at room temperature (in deep-well plates shaking for three hours). The final volume in each well was 250 μl. The incubation was followed by rapid filtration on GF/B filters (pre-soaked with 100 μl of 0.5% PEI in Tris 50 mM shaking at 200 rpm for two hours). The filtration was made using a cell-harvester and the filter plates were then washed five times with ice cold washing buffer containing 0.5 M NaCl. After harvesting, the plates were dried at 55° C. for 60 min, then we added scintillation fluid (Microscint 40, 40 microl in each well) and the amount of radioactivity on the filter was determined in Packard top-counter after shaking the plates for two hours at 200 rpm at room temperature.
Binding Buffer: 50 mM Tris-HCl pH 7.4 and 5 mM MgCl2×6H2O pH 7.4. Washing Buffer: 50 mM Tris-HCl pH 7.4 and 5 mM MgCl2×6H2O and 0.5 M NaCl pH 7.4.
Indirect measurement of affinity of H3R inverse agonists: twelve increasing concentrations (ranging from 10 μM to 0.3 nM) of the selected compounds were always tested in competition binding experiments using membrane of the human H3R—CHO cell line. An appropriate amount of protein, e.g. approximately 500 cpm binding of RAMH at Kd, were incubated for 1 hour at room temperature in 250 μl final volume in 96-well plates in presence of ^3H(R)α-methylhistamine (1 nM final concentration=Kd). Non-specific binding was determined using a 200 fold excess of cold (R)α-methylhistamine dihydrobromide.
All compounds were tested at a single concentration in duplicate. […] The concentration at which 50% inhibition of the radioligand ^3H(R)α-methylhistamine is obtained (the IC50) is determined from the linear regression of a plot of the logarithm of the concentration versus percent inhibition measured for the different concentrations. Ki's were calculated from IC50 based on Cheng-Prusoff equation (Cheng, Y, Prusoff, W H (1973) Biochem Pharmacol 22, 3099-3108): Ki=IC50/[1+D/Kd] wherein D is the concentration of the radioligand and Kd is the binding constant for the radioligand binding to the receptor under the conditions used in the competition experiment.
As usually defined, the Ki is a dissociation constant, usually derived from enzyme kinetics or from competition with a known ligand. As to `CC(C)N1CCN(C(=O)c2ccc3c(ccn3CC3CCCC3)c2)CC1` [Example 1, (1-Cyclopentylmethyl-1H-indol-5-yl)-(4-isopropyl-piperazin-1-yl)-methanone], the Ki was 84.4 nM.
Then `O=C(c1cccc2c1ccn2Cc1ccc(F)cc1Cl)N1CCN(C2CCCC2)CC1` [Example 41, [1-(2-chloro-4-fluoro-benzyl)-1H-indol-4-yl]-(4-cyclopentyl-piperazin-1-yl)-methanone], with 17.4 nM; and `CC(C(=O)c1ccccc1)n1ccc2c(C(=O)N3CCN(C4CCCC4)CC3)cccc21` (stereo not shown) [Example 34, 2-[4-(4-Cyclopentyl-piperazine-1-carbonyl)-indol-1-yl]-1-phenyl-propan-1-one], with 93.5 nM.
Then `O=C(c1ccc2c(ccn2S(=O)(=O)c2cccs2)c1)N1CCN(C2CCCC2)CC1` [Example 20, (4-cyclopentyl-piperazin-1-yl)-[1-(thiophene-2-sulfonyl)-1H-indol-5-yl]-methanone], with 52.2 nM.
